Reference: the supplement of paper PMC10307832

Tests used:
Test in all cases: relative viability (nuclei count vs DMSO), 5 days (fraction); higher = more cells survive
[1] = compound: N[C@@H]1CCCN(c2c(/C=C3\SC(=O)NC3=O)cccc2-c2ccccc2)C1 [AZD1208] + O=C(CCCCCCC(=O)Nc1ccccc1)NO [Vorinostat] (partner 1 µM)
How it was run: (§1)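 Lung cancer cell lines were seeded in 1536-well plates and dosed by pin tool the next day, with either a single drug or a fixed anchor-drug dose combined with five library-drug doses (not always all listed) spaced in √10 steps. Five days later, one step fixed the cells and stained their nuclei (final 0.05% Triton X-100, 1% formaldehyde, 1 ug/ml Hoechst), and nuclei were counted on 4× images. Relative viability is the nuclei count in treated wells divided by the count in vehicle wells, and each value is the median of duplicate plates.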

[2] = compound: N[C@@H]1CCCN(c2c(/C=C3\SC(=O)NC3=O)cccc2-c2ccccc2)C1 [AZD1208] + CC(C)C[C@H](NC(=O)[C@H](Cc1ccccc1)NC(=O)c1cnccn1)B(O)O [Bortezomib] (partner 0.002 µM)
How it was run: as §1

[3] = compound: CN1CCN(CC1)C2=CC(=C(C=C2)NC3=NC(=C(S3)C(=O)C4=C(C=CC=C4Cl)Cl)N)OC [XMD14-99] + CC(=O)c1c(C)c2cnc(Nc3ccc(N4CCNCC4)cn3)nc2n(C2CCCC2)c1=O [Palbociclib] (partner 0.5 µM)
How it was run: as §1

[4] = compound: CN1CCN(CC1)C2=CC(=C(C=C2)NC3=NC(=C(S3)C(=O)C4=C(C=CC=C4Cl)Cl)N)OC [XMD14-99] + C[C@@H](Oc1cc(-c2cnn(C3CCNCC3)c2)cnc1N)c1c(Cl)ccc(F)c1Cl [Crizotinib] (partner 1 µM)
How it was run: as §1

Cell Line | relative viability ([1]; first compound 0.08 µM) | relative viability ([1]; first compound 0.253 µM) | relative viability ([1]; first compound 0.8 µM) | relative viability ([1]; first compound 2.53 µM) | relative viability ([1]; first compound 8 µM) | relative viability ([2]; first compound 0.08 µM) | relative viability ([2]; first compound 0.253 µM) | relative viability ([2]; first compound 0.8 µM) | relative viability ([2]; first compound 2.53 µM) | relative viability ([2]; first compound 8 µM) | relative viability ([3]; first compound 0.08 µM) | relative viability ([3]; first compound 0.8 µM) | relative viability ([3]; first compound 2.53 µM) | relative viability ([3]; first compound 8 µM) | relative viability ([4]; first compound 0.08 µM) | relative viability ([4]; first compound 0.8 µM) | relative viability ([4]; first compound 2.53 µM) | relative viability ([4]; first compound 8 µM)
201T | 0.961 | 1.01 | 0.967 | 0.949 | 0.952 | 1.13 | 1.14 | 1.13 | 1.16 | 1.13 | 0.351 | 0.368 | 0.371 | 0.333 | 1.03 | 1.02 | 1.01 | 0.917
A549 |  |  |  |  |  |  |  |  |  |  |  |  |  |  | 0.593 | 0.728 | 0.705 | 0.452
A-427 | 0.873 | 0.913 | 0.836 | 0.906 | 0.828 | 1 | 0.939 | 0.963 | 0.936 | 0.884 | 0.515 | 0.554 | 0.488 | 0.452 | 0.83 | 0.746 | 0.614 | 0.658
ABC-1 | 1.75 | 1.08 | 0.922 | 0.997 | 1.02 | 0.302 | 0.31 | 0.282 | 0.268 | 0.213 | 0.783 | 0.722 | 0.651 | 0.634 | 1 | 1.07 | 1.04 | 0.802
BEN | 0.61 | 0.584 | 0.49 | 0.503 | 0.427 | 0.796 | 0.763 | 0.495 | 0.636 | 0.475 | 0.489 | 0.468 | 0.478 | 0.476 | 0.789 | 0.718 | 0.761 | 0.647
CAL-12T | 0.675 | 0.814 | 0.565 | 0.653 | 0.439 | 1.32 | 1.03 | 0.887 | 1.03 | 1.18 | 0.532 | 0.43 | 0.485 | 0.413 | 0.926 | 0.609 | 0.724 | 0.466
COR-L23 | 0.488 | 0.401 | 0.49 | 0.433 | 0.41 | 0.927 | 1.11 | 0.888 | 1.02 | 0.929 | 0.266 | 0.295 | 0.299 | 0.18 | 0.684 | 0.614 | 0.51 | 0.33
COR-L 105 | 1.04 | 0.833 | 0.898 | 0.832 | 0.779 | 0.712 | 1.01 | 0.807 | 0.544 | 0.673 | 0.402 | 0.418 | 0.433 | 0.344 | 0.709 | 0.88 | 0.721 | 0.444
Calu-6 |  |  |  |  |  | 1.01 | 1.02 | 0.976 | 1.03 | 0.929 |  |  |  |  | 0.807 | 0.756 | 0.747 | 0.513
ChaGo-K-1 | 0.732 | 0.831 | 0.557 | 0.637 | 0.608 | 1.21 | 0.983 | 1.04 | 0.975 | 0.92 | 0.972 | 0.93 | 0.975 | 0.873 | 1.1 | 1.14 | 1.19 | 0.92
EBC-1 |  |  |  |  |  | 0.597 | 0.586 | 0.508 | 0.456 | 0.448 |  |  |  |  | 0.232 | 0.19 | 0.188 | 0.156
EKVX | 0.766 | 0.583 | 0.744 | 0.735 | 0.763 | 1.17 | 1.21 | 1.03 | 1.2 | 1 | 0.358 | 0.403 | 0.377 | 0.361 | 0.976 | 0.808 | 0.898 | 0.741
EMC-BAC-2 | 0.872 | 0.394 | 0.447 | 0.469 | 0.399 | 1.15 | 1.16 | 1.05 | 1.02 | 0.919 | 0.523 | 0.516 | 0.509 | 0.481 | 0.801 | 0.775 | 0.743 | 0.62
EPLC-272H | 0.405 | 0.505 | 0.38 | 0.333 | 0.443 | 0.878 | 0.806 | 0.924 | 0.927 | 0.728 | 0.306 | 0.299 | 0.324 | 0.347 | 0.923 | 0.813 | 1.04 | 0.927
H3255 | 0.831 | 0.869 | 0.772 | 0.747 | 0.74 | 0.874 | 0.758 | 0.667 | 0.968 | 0.718 | 0.317 | 0.303 | 0.296 | 0.295 | 0.831 | 0.64 | 0.757 | 0.597
HARA | 0.489 | 0.486 | 0.451 | 0.515 | 0.546 | 1.09 | 1.12 | 1.08 | 1.18 | 1.19 | 0.291 | 0.25 | 0.281 | 0.204 | 0.994 | 0.938 | 0.864 | 0.646
HCC-15 | 0.805 | 0.859 | 0.834 | 0.83 | 0.692 | 1.06 | 1.21 | 1.07 | 1.08 | 0.948 | 0.733 | 0.765 | 0.733 | 0.629 | 0.773 | 0.816 | 0.807 | 0.605
HCC-44 | 1.2 | 1.09 | 1.13 | 1.11 | 1.12 | 0.991 | 0.952 | 0.857 | 0.978 | 0.95 | 1.03 | 0.969 | 1 | 1.01 | 0.828 | 0.762 | 0.855 | 0.765
HCC-78 | 0.435 | 0.444 | 0.413 | 0.403 | 0.37 | 0.474 | 0.586 | 0.453 | 0.475 | 0.529 | 0.487 | 0.54 | 0.557 | 0.445 | 0.325 | 0.319 | 0.351 | 0.255
HCC-366 | 0.373 | 0.473 | 0.391 | 0.36 | 0.291 | 1.02 | 1.09 | 0.943 | 1.03 | 0.973 | 0.452 | 0.383 | 0.346 | 0.306 | 0.494 | 0.503 | 0.478 | 0.497
